In US20110034384A1, “COMBINATION VEGFR2 THERAPY WITH mTOR INHIBITORS” (Bristol-Myers Squibb Company, priority 2007, published 2011):
“Also recorded” adds a separate entry of the source.

B1: Comp-I: the VEGFR2 specific inhibitor represented by SEQ ID NO: 4; a VEGFR-2 binding 10Fn3 fibronectin based scaffold polypeptide (protein)
chain: GEVVAATPTSLLISWRHPHFPTRYYRITYGETGGNSPVQEFTVPLQPPTATISGLKPGVDYTITVYAVTDGRNGRLLSIPISINYRTEIDKPCQ

Tests used:
Type in all cases: in vivo, nude mice
[1] = tested on: Colo205 tumor; test: Colo205 xenograft: Comp-I vs. Bevacizumab, Temsirolimus added at Day 17 (Example 2); settings: for Day 22 (TV, mm3) (Mean) / Day 22 (TV, mm3) Average ± STDErr: Temsirolimus 10 mg/kg BIW added on Day 17 to Bevacizumab 10 mg/kg BIW, Comp-I 80 mg/kg TIW or vehicle (n = 4); for Day 1 (TV, mm3) (Mean) / Day 1 (TV, mm3) Average ± STDErr: i.p.; for Day 1 (TV, mm3) (Mean) / Day 1 (TV, mm3) Average ± STDErr / Day 19 (TV, mm3) (Mean) / Day 19 (TV, mm3) Average ± STDErr / Percentage of tumor growth inhibition: Bevacizumab 10 mg/kg BIW, Comp-I 80 mg/kg TIW; for Day 19 (TV, mm3) (Mean) / Day 19 (TV, mm3) Average ± STDErr: Temsirolimus 10 mg/kg BIW added on Day 17; for Day 19 (TV, mm3) (Mean) / Day 19 (TV, mm3) Average ± STDErr / Percentage of tumor growth inhibition: Day 19; for Percentage of tumor growth inhibition: Temsirolimus added on Day 17
Description: (§1) Tumors were measured with calipers twice a week. Tumor volumes (mm^3) were calculated by the formula [π/6 (L×W^2)], where L represents the largest tumor diameter (mm) and W represents the smallest tumor diameter (mm). Tumor measurements were noted as absolute values. Animal body weights were determined weekly during the course of the experiment. Tumor Growth Inhibition (TGI) was calculated as the percent tumor growth of treated (T) groups from control group (vehicle, C). Tumor growth was calculated by subtracting initial tumor volume (at day 0) from the final tumor volume at the end of the experiment. TGI=(1−[T-T0]/[C-C0])*100.
Human Colo205 cells were injected subcutaneously into the flanks of nude mice. Mice were randomized and treatments initiated when tumors reached an average size of 167 mm^3. Comp-I and Bevacizumab were administered intraperitoneally to Colo-205 tumor bearing-mice in doses and schedules as indicated in Table 4. Temsirolimus treatment (10 mg/kg, BIW) was initiated on Day 17 added to Comp-I and Bevacizumab treatments on Day 17. Half the mice (n=4) in the vehicle group were initiated on torisel the same day and the other half (n=4) remained under vehicle treatment. Both anti-angiogenic treatments reduced […] to similar levels by Day 22 (FIG. 4). Percentage of tumor growth inhibition was determined as follows: Day 19/Comp-I (89%), Day 19/Bevacizumab (87%).

[2] = tested on: Colo205 tumor; test: Colo205 xenograft: Comp-I, Temsirolimus and their combination (Example 1); settings: for Colo205 tumor growth inhibition (in words): 21 days under treatment, FIG. 1, Table 2; for Tumor Volume Average: i.p., Comp-I 60 mg/kg TIW, Temsirolimus 20 mg/kg BIW, Combo 60/20 mg/kg TIW/BIW
Description: Human Colo205 cells were injected subcutaneously into the flanks of nude mice. Mice were randomized and treatments initiated when tumors reached an average size of 235 mm^3. Optimal doses of Comp-I (the VEGFR2 specific inhibitor represented by SEQ ID NO: 4) and Temsilorimus were administered intraperitoneally to Colo-205 tumor bearing-mice in doses and schedules as indicated in Table 1. Tumor growth was evaluated for 21 days under treatment (FIG. 1). Mice were taken off treatment after day 21 until day 57, with a continuous assessment of tumor growth (FIG. 2). Control was euthanized on Day 41. [table] Tumors were measured with calipers twice a week. Tumor volumes (mm^3) were calculated by the formula [π/6 (L×W^2)], where L represents the largest tumor diameter (mm) and W represents the smallest tumor diameter (mm). Tumor measurements were noted as absolute values. Animal body weights were determined weekly during the course of the experiment. Tumor Growth Inhibition (TGI) was calculated as the percent tumor growth of treated (T) groups from control group (vehicle, C). Tumor growth was calculated by subtracting initial tumor volume (at day 0) from the final tumor volume at the end of the experiment. TGI=(1−[T-T0]/[C-C0])*100.

[3] = tested on: Colo205 tumor; test: Colo205 xenograft: Comp-I vs. Bevacizumab, Temsirolimus added at Day 9 (Example 3); settings: for Day 14 (TV, mm^3) (Mean) / Day 14 (TV, mm^3) Average ± STDErr: Temsirolimus 10 mg/kg BIW added on Day 9 to Bevacizumab 10 mg/kg BIW, Comp-I 80 mg/kg TIW or vehicle (n = 4); for Day 1 (TV, mm^3) (Mean) / Day 1 (TV, mm^3) Average ± STDErr: i.p.; for Day 1 (TV, mm^3) (Mean) / Day 1 (TV, mm^3) Average ± STDErr / Day 8 (TV, mm^3) (Mean) / Day 8 (TV, mm^3) Average ± STDErr / Percentage of tumor growth inhibition: Bevacizumab 10 mg/kg BIW, Comp-I 80 mg/kg TIW; for Day 8 (TV, mm^3) (Mean) / Day 8 (TV, mm^3) Average ± STDErr: Day 8 (before Temsirolimus)
Description: as §1
Human Colo205 cells were injected subcutaneously into the flanks of nude mice. Mice were randomized and treatments initiated when tumors reached an average size of 411 mm^3. Comp-I and Bevacizumab were administered intraperitoneally to Colo-205 tumor bearing-mice in doses and schedules as indicated in Table 5. Temsirolimus (10 mg/kg, BIW) was added to Comp-I and Bevacizumab treatments on Day 9. Half the mice (n=4) in the vehicle group were initiated on torisel the same day and the other half (n=4) remained under vehicle treatment Both anti-angiogenic treatments reduced […] to similar levels by Day 14 (FIG. 5).

[4] = tested on: HT1080 tumor; test: HT1080 xenograft: Comp-I vs. Bevacizumab, Temsirolimus added at Day 23 (Example 4); settings: for Day 1 (TV, mm^3) (Mean) / Day 1 (TV, mm^3) Average ± STDErr / Day 23 (TV, mm^3) (Mean) / Day 23 (TV, mm^3) Average ± STDErr: i.p.
Description: Human HT1080 cells were injected subcutaneously into the flanks of nude mice. Mice were randomized and treatments initiated when tumors reached an average size of 201 mm^3. Comp-I and Bevacizumab were administered intraperitoneally to HT1080 tumor bearing-mice in doses and schedules as indicated in Table 6. Temsirolimus (10 mg/kg, BIW) was added to Comp-I and Bevacizumab treatments on Day 23. Both anti-angiogenic treatments reduced […] as measured on Day 27 (FIG. 6).

[5] = Day 11, Temsirolimus 10 mg/kg BIW added on Day 9
[6] = Bevacizumab 5 mg/kg BIW, Comp-I 100 mg/kg TIW
[7] = QW groups: Bevacizumab 5 mg/kg QW, Comp-I 100 mg/kg QW

| Molecule | Day 22 (TV, mm3) (Mean) [1] | Day 22 (TV, mm3) Average ± STDErr [1] | Colo205 tumor growth inhibition (in words) [2] | Tumor Volume Average ([2]; Day 1) | Tumor Volume Average ([2]; Day 5) | Tumor Volume Average ([2]; Day 8) | Tumor Volume Average ([2]; Day 11) | Tumor Volume Average ([2]; Day 14) | Tumor Volume Average ([2]; Day 19) | Tumor Volume Average ([2]; Day 21) | Day 14 (TV, mm^3) (Mean) [3] | Day 14 (TV, mm^3) Average ± STDErr [3] | Day 1 (TV, mm3) (Mean) [1] | Day 1 (TV, mm3) Average ± STDErr [1] | Day 19 (TV, mm3) (Mean) [1] | Day 19 (TV, mm3) Average ± STDErr [1] | Percentage of tumor growth inhibition [1] | Day 1 (TV, mm^3) (Mean) [3] | Day 1 (TV, mm^3) Average ± STDErr [3] | Day 8 (TV, mm^3) (Mean) [3] | other results |
| --- | --- | --- | --- | --- | --- | --- | --- | --- | --- | --- | --- | --- | --- | --- | --- | --- | --- | --- | --- | --- | --- |
| CO[C@H]1C[C@@H]2CC[C@@H](C)[C@@](O)(O2)C(=O)C(=O)N2CCCC[C@H]2C(=O)O[C@H]([C@H](C)C[C@@H]2CC[C@@H](OC(=O)C(C)(CO)CO)[C@H](OC)C2)CC(=O)[C@H](C)/C=C(\C)[C@@H](O)[C@@H](OC)C(=O)[C@H](C)C[C@H](C)/C=C/C=C/C=C/1C [Temsirolimus, temsirolimus] | 667.5 mm3 | 612.3 ± 99.5 mm3 | equally inhibited | 237.19 mm^3 | 287.19 mm^3 | 313.73 mm^3 | 354.14 mm^3 | 378.44 mm^3 | 395.95 mm^3 | 422.42 mm^3 | 821.1 mm^3 | 849.6 ± 106.6 mm^3 | – | – | – | – | – | – | – | – | – |
| Bevacizumab: anti-angiogenic treatment; Bevacizumab-mediated VEGF inhibition | 250.7 mm3 | 246.5 ± 21.2 mm3 | – | – | – | – | – | – | – | – | 458.9 mm^3 | 455.1 ± 36.2 mm^3 | (166.7) mm3 | 167.7 ± 7.7 mm3 | (299.2) mm3 | 290.3 ± 24.6 mm3 | 87% | (398.6) mm^3 | 413.0 ± 32.9 mm^3 | (511.8) mm^3 | Day 8 (TV, mm^3) Average ± STDErr [3]: 519.0 ± 50.0 mm^3; Percentage of tumor growth inhibition ([3]; Day 8): 38.99%; Percentage of tumor growth inhibition [3, 5]: 82.2%; Day 1 (TV, mm^3) (Mean) [4, 6]: 191.9 mm^3; Day 1 (TV, mm^3) Average ± STDErr [4, 6]: 201.6 ± 19.1 mm^3; Day 1 (TV, mm^3) (Mean) [4, 7]: 195.8 mm^3; Day 1 (TV, mm^3) Average ± STDErr [4, 7]: 202.0 ± 18.8 mm^3; Day 23 (TV, mm^3) (Mean) [4, 6]: 517.4 mm^3; Day 23 (TV, mm^3) Average ± STDErr [4, 6]: 486.9 ± 34.6 mm^3; Day 23 (TV, mm^3) (Mean) [4, 7]: 598.3 mm^3; Day 23 (TV, mm^3) Average ± STDErr [4, 7]: 619.3 ± 69.6 mm^3 |
| B1 | 247.1 mm3 | 239.4 ± 18.3 mm3 | inhibits Colo205 tumor growth to the same extent as the mTOR inhibitor Temsirolimus; also recorded: equally inhibited | 235.25 mm^3 | 301.95 mm^3 | 325.42 mm^3 | 369.21 mm^3 | 403.32 mm^3 | 426.71 mm^3 | 455.84 mm^3 | 449.2 mm^3 | 444.6 ± 30.2 mm^3 | (166.2) mm3 | 167.4 ± 8.1 mm3 | (293.1) mm3 | 289.4 ± 21.5 mm3 | 89% | (417.2) mm^3 | 413.5 ± 28.7 mm^3 | (505.8) mm^3 | Day 8 (TV, mm^3) Average ± STDErr [3]: 502.5 ± 33.6 mm^3; Percentage of tumor growth inhibition ([3]; Day 8): 53.03%; Percentage of tumor growth inhibition [3, 5]: 91.5%; Day 1 (TV, mm^3) (Mean) [4, 6]: 183.4 mm^3; Day 1 (TV, mm^3) Average ± STDErr [4, 6]: 205.1 ± 20.9 mm^3; Day 1 (TV, mm^3) (Mean) [4, 7]: 207.0 mm^3; Day 1 (TV, mm^3) Average ± STDErr [4, 7]: 203.4 ± 18.7 mm^3; Day 23 (TV, mm^3) (Mean) [4, 6]: 460.5 mm^3; Day 23 (TV, mm^3) Average ± STDErr [4, 6]: 432.8 ± 23.6 mm^3; Day 23 (TV, mm^3) (Mean) [4, 7]: 492.9 mm^3; Day 23 (TV, mm^3) Average ± STDErr [4, 7]: 533.4 ± 47.9 mm^3; sensitivity of tumor growth, Comp-I vs. Bevacizumab (in words) ([4]; HT1080 model): tumor growth is more sensitive to Comp-1-mediated VEGFR-2 inhibition than to Bevacizumab-mediated VEGF inhibition |
